Measured values taken from patent US20040002842A1, “Methods and systems for analyzing complex biological systems” (priority 2001, published 2004).

Columns and labels:
Type in all cases: cell-based
[1] = tested on: Saccharomyces cerevisiae wild type strain BY4743; assay: AF1 yeast metabolite analysis by GC-MS and LC-MS; settings: for # Compounds perturbed by treatment: 2×MIC, two hours
[2] = tested on: Saccharomyces cerevisiae wild type strain BY4743; assay: AF1 yeast gene expression analysis (microarray, KEGG pathway mapping); settings: for # Transcripts perturbed by treatment: 2×MIC, two hours; for Number of Pathways Affected by at Least One Gene, # Pathways: p < 0.05, KEGG mapping
Protocol: Saccharomyces cerevisiae wild type strain BY4743 was purchased from American Type Culture Center (ATCC, Manassas, Va.). The yeast strain was grown in YPD or SD media. H. […] The cultures started from fresh single colonies were grown in 1.0 ml YPD overnight at 30° C. […] The OD600 was adjusted to 1.0 with YPD media, then 2.0 ml of each was inoculated into three 250 ml flasks, each containing 50 ml of SD media. […] The cells were kept growing for another two hours, then collected by centrifugation at 4000 rpm for 5 minutes at 4° C. Pellets were washed once with ice-cold water, then were lyophilized overnight at 4° C. […] Tubes were vortexed for 30 seconds, then incubated for 10 minutes at room temperature (RT). […] Tubes were incubated for 10 minutes at RT. Samples were centrifuged for 20 minutes as before. Pellets were washed with 400 μl 70% ethanol and centrifuged for 10 minutes as before. The pellet was then dissolved in 100 μl nuclease-free water. RNA quality was determined using the Bioanalyzer 2100 and the RNA 6000 assay (Agilent Technologies, Palo Alto, Calif.) according to manufacturer's instructions. RNA concentrations were determined spectrophotometrically by measuring the absorption at 260 nm in an Ultrospec 2000 (Pharmacia Biotech, Piscataway, N.J.). […] Labeled cRNAs were evaluated using the RNA 6000 assay on the Agilent Bioanalyzer 2100. Labeled cRNA concentrations were determined spectrophotometrically by measuring the absorption at 260 nm in an Ultrospec 2000 (Pharmacia Biotech, Piscataway, N.J.). […] Each pair of samples to be hybridized were independently labeled and hybridized utilizing a fluor reversal for a total of two hybridizations per sample pair. The microarrays were scanned simultaneously in the Cy3 and Cy5 channels with Agilent's 48-slide, Dual Laser DNA Microarray Scanner (Agilent Technologies, Palo Alto, Calif.) at 10 μm resolution using default settings. Image Analysis Software (Version A.4.0.45, Agilent Technologies, Palo Alto, Calif.) was used for image analysis. Each feature was determined from an array's associated pattern file and a detection algorithm. Intensity values for each feature were determined after subtracting background derived from an average of negative control features. Features with unusual pixel intensity statistics (e.g., high non-uniformity, saturation in either channel, and the like) were excluded from downstream analyses. Data was loaded into the Rosetta RESOLVER database (Rosetta Inpharmatics Inc., Kirkland, Wash.) for storage and analysis. Data was evaluated after combining results from fluor reversal replicate hybridizations. The annotation of yeast ORFs was obtained from Proteome BIOKNOWLEDGE Library (Incyte Genomics, Palo Alto, Calif.). In AF1, two different technologies were utilized: gene expression analysis (for examination of mRNA expression) and metabolite analysis. […] As noted previously, existing metabolic databases may be helpful in practicing the methods and systems of the present invention, but many databases include limitations that make their use in data analysis and pathway mapping less than straightforward. […] This caveat to KEGG makes it difficult to pinpoint the correct pathway when attempting to link a gene to a specific pathway. The pathway score indicates how meaningful the mapping is, or how likely it is to be correctly indicative of the pathway involved in the perturbation under examination. The method provides a pathway score based on perturbation levels of genes and/or compounds and the information content of each gene and/or compound in the pathway, i.e., a pathway score indicates the extent to which other pathways are mapped to a gene/compound. For example, imagine that two genes are perturbed in a particular experiment.

[3] = tested on: Saccharomyces cerevisiae wild type strain BY4743; assay: AF1 combined gene expression and metabolite data (reactions, pathways, cluster analysis)
From the text: The data were then combined to determine the number of reactions showing an enzyme and at least one compound perturbed, and to determine the number of pathways having at least one enzyme and one perturbed compound perturbed. The results of the analysis are represented in Tables 16 and 17, and were difficult to interpret, illustrating that the ability to draw conclusions from compound mapping to pathways is limited when absent additional data. […] A coherent data set was created from data obtained from the four above-described drug compounds. The data were reduced by using principle components analysis and cluster analysis.

With `C[C@@H]1[C@H](O)[C@@H](C)/C=C/C=C/C=C/C=C/C=C/C=C/C=C/[C@H](O[C@@H]2O[C@H](C)[C@@H](O)[C@H](N)[C@@H]2O)C[C@@H]2O[C@](O)(C[C@@H](O)C[C@@H](O)[C@H](O)CC[C@@H](O)C[C@@H](O)CC(=O)O[C@H]1C)C[C@H](O)[C@H]2C(=O)O` [Amphoteracin B] the “# Compounds perturbed by treatment” value ([1]; P < 0.05) was 16, the “# Compounds perturbed by treatment” value ([1]; P < 0.1) was 21 and the “# Transcripts perturbed by treatment” value ([2]; P < 0.05) was 4363. The “# Transcripts perturbed by treatment” value ([2]; P < 0.1) was 4652, the “Number of Pathways Affected by at Least One Gene, # Pathways” value (shortened to “Number of Pathways Affected”) [2] was 97 and the “Number of Reactions Having an Enzyme and at Least One Compound Perturbed, # Reactions” value (shortened to “Number … # Reactions”) [3] was 54.
`OC(Cn1cncn1)(Cn1cncn1)c1ccc(F)cc1F` [Fluconazole] was tested, and the “# Compounds perturbed by treatment” value ([1]; P < 0.05) was 2, the “# Compounds perturbed by treatment” value ([1]; P < 0.1) was 6 and the “Fold Change: TMS mevalonic acid lactone” value ([1]; Platform GC) was 0.1434. The “Fold Change: squalene” value ([1]; Platform GC) was 0.1999, the “Fold Change: sugar?” value ([1]; Platform GC) was 0.4817 and the “Fold Change: tetradecanoic acid” value ([1]; Platform GC) was 0.07967. The “Fold Change: threonine2” value ([1]; Platform GC) was 0.5053, the “Fold Change: threonine3” value ([1]; Platform GC) was 0.2513 and the “Fold Change: tms glutamine3” value ([1]; Platform GC) was 0.7271. The “Fold Change: tms lysine4” value ([1]; Platform GC) was 0.3657, the “Fold Change: tms tyrosine2” value ([1]; Platform GC) was 0.8643 and the “Fold Change: tms tyrosine3” value ([1]; Platform GC) was 0.3321. The “Fold Change: valine” value ([1]; Platform GC) was 0.2727, the “Fold Change, benzoic acid” value ([1]; Platform nLC) was 0 and the “Fold Change: retinoic acid” value ([1]; Platform nLC) was 0. The “Fold Change: salicylic/HObenzoic” value ([1]; Platform nLC) was 0, the “Fold Change: selenoDLmethionine” value ([1]; Platform nLC) was −0.5748 and the “Fold Change: serine” value ([1]; Platform nLC) was 0.3936. The “Fold Change: shikimic acid” value ([1]; Platform nLC) was 0, the “Fold Change: sinapinic acid” value ([1]; Platform nLC) was 0 and the “Fold Change: sorbitol/mannitol” value ([1]; Platform nLC) was 0.365. For the same molecule, the “Fold Change: succinic” value ([1]; Platform nLC) was 0.3094, the “Fold Change: sucrose” value ([1]; Platform nLC) was 0.3104 and the “Fold Change: sugar-phosphate” value ([1]; Platform nLC) was −0.05306. The “Fold Change: tetradecanoic acid” value ([1]; Platform nLC) was 0.5495, the “Fold Change: threonine/homoserin” value ([1]; Platform nLC) was 0.3257 and the “Fold Change: thymine” value ([1]; Platform nLC) was 0. For the same molecule, the “Fold Change: tryptophan” value ([1]; Platform nLC) was 1.649, the “Fold Change: tyrosine” value ([1]; Platform nLC) was 0.2303 and the “Fold Change: uracil” value ([1]; Platform nLC) was 1.256. The “Fold Change: uridine” value ([1]; Platform nLC) was 0.3463, the “Fold Change: urocanic acid” value ([1]; Platform nLC) was 0 and the “Fold Change: valine” value ([1]; Platform nLC) was 0.3235. The “Fold Change: xanthosineDiH2O” value ([1]; Platform nLC) was 0, the “Fold Change: zeatin” value ([1]; Platform nLC) was 0 and the “Fold Change: riboflavin” value ([1]; Platform pLC) was 0. For the same molecule, the “Fold Change: selenoDLmethionine” value ([1]; Platform pLC) was −0.6865, the “Fold Change: serine” value ([1]; Platform pLC) was 0.11 and the “Fold Change: sugar-phosphate” value ([1]; Platform pLC) was 0. The “Fold Change: thiamine” value ([1]; Platform pLC) was 0, the “Fold Change: threonine/homoserin” value ([1]; Platform pLC) was 0.1604 and the “Fold Change: thymine” value ([1]; Platform pLC) was 0. For the same molecule, the “Fold Change: tryptophan” value ([1]; Platform pLC) was 0, the “Fold Change: tyrosine” value ([1]; Platform pLC) was 0.1099 and the “Fold Change: uric acid” value ([1]; Platform pLC) was 0. The “Fold Change: urocanic acid” value ([1]; Platform pLC) was 0, the “Fold Change: xanthosine(diH2O)” value ([1]; Platform pLC) was 0 and the “Fold Change: zeatin” value ([1]; Platform pLC) was 0. The “Number of Pathways Affected” value [2] was 79 and the “Number … # Reactions” value [3] was 2.
With `CC(=O)N1CCN(c2ccc(OCC3COC(Cn4ccnc4)(c4ccc(Cl)cc4Cl)O3)cc2)CC1` (centres unmarked) [Ketoconazole] the “# Compounds perturbed by treatment” value ([1]; P < 0.1) was 15, the “Number of Pathways Affected” value [2] was 90 and the “Number … # Reactions” value [3] was 21.
